Data reported in patent publication US9828369B2, “Isoquinoline derivatives useful as inhibitors of diacylglyceride O-acyltransferase 2” (Merck Sharp & Dohme Corp., priority 2014, dated 2017).
pIC50: −log10 of the molar value.

Target: hDGAT2 (Homo sapiens (Human), UniProt Q96PD7)
Assay: DGAT2 enzymatic activity assay (triolein formation, LC/MS/MS)
Conditions: read-out: IC50 values for inhibition of DGAT2; membrane prep of Sf-9 cells expressing hDGAT2; 25 μM diolein, 10 μM oleoyl-CoA; room temperature; triolein by LC/MS/MS

hDGAT2, sequence (Q96PD7 whole entry): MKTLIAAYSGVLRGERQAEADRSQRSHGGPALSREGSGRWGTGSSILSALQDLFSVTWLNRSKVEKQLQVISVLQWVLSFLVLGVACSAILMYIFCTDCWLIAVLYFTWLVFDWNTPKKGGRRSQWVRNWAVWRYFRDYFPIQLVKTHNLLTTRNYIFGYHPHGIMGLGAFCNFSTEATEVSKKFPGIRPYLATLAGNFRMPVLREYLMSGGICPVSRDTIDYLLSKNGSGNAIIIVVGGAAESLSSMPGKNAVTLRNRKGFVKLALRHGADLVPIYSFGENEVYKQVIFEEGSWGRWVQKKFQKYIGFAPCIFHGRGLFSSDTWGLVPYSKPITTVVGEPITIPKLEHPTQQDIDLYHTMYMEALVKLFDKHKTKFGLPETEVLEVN

| SMILES | pIC50 |
| --- | --- |
| COc1cccc(-c2ccc(CNC(=O)c3ccc(N4CCCC4=O)cc3)c3cnccc23)c1 [Example 67, N-((5-(3-methoxyphenyl)isoquinolin-8-yl)methyl)-4-(2-oxopyrrolidin-1-yl)benzamide] | 5.71 |
| COc1cccc(-c2ccc(CNC(=O)c3cccc(-n4nc(C)cc4C)c3)c3cnccc23)c1 [Example 68, 3-(3,5-dimethyl-1H-pyrazol-1-yl)-N-((5-(3-methoxyphenyl)isoquinolin-8-yl)methyl)benzamide] | 5.78 |
| COc1cccc(-c2ccc(CNC(=O)c3ccnc(-n4cnnn4)c3)c3cnccc23)c1 [Example 69, N-((5-(3-methoxyphenyl)isoquinolin-8-yl)methyl)-2-(1H-tetrazol-1-yl)isonicotinamide] | 5.47 |
| COc1cccc(-c2ccc(CNC(=O)c3coc(-c4ccccc4)n3)c3cnccc23)c1 [Example 70, N-((5-(3-methoxyphenyl)isoquinolin-8-yl)methyl)-2-phenyloxazole-4-carboxamide] | 5.63 |
| COc1cccc(-c2ccc(CNC(=O)c3noc(-c4ccccc4)n3)c3cnccc23)c1 [Example 72, N-((5-(3-methoxyphenyl)isoquinolin-8-yl)methyl)-5-phenyl-1,2,4-oxadiazole-3-carboxamide] | 5.41 |
| COc1cccc(-c2ccc(CNC(=O)c3c[nH]c(-c4ccccc4)n3)c3cnccc23)c1 [Example 73, N-((5-(3-methoxyphenyl)isoquinolin-8-yl)methyl)-2-phenyl-1H-imidazole-4-carboxamide] | 5.23 |
| COc1cccc(-c2ccc(CNC(=O)c3ccn(-c4ccccc4)n3)c3cnccc23)c1 [Example 74, N-((5-(3-methoxyphenyl)isoquinolin-8-yl)methyl)-1-phenyl-1H-pyrazole-3-carboxamide] | 5.90 |
| COc1cccc(-c2ccc(CNC(=O)c3cnc(-c4ccccc4)cn3)c3cnccc23)c1 [Example 75, N-((5-(3-methoxyphenyl)isoquinolin-8-yl)methyl)-5-phenylpyrazine-2-carboxamide] | 5.04 |
| COc1cccc(-c2ccc(CNC(=O)c3ccc(-c4ccon4)cc3)c3cnccc23)c1 [Example 76, 4-(isoxazol-3-yl)-N-((5-(3-methoxyphenyl)isoquinolin-8-yl)methyl)benzamide] | 5.35 |
| COc1cccc(-c2ccc(CNC(=O)c3ccncc3-c3ccccc3)c3cnccc23)c1 [Example 77, N-((5-(3-methoxyphenyl)isoquinolin-8-yl)methyl)-3-phenylisonicotinamide] | 5.92 |
| COc1cccc(-c2ccc(CNC(=O)c3csc(-c4ccc(C(F)(F)F)cc4)n3)c3cnccc23)c1 [Example 78, N-((5-(3-methoxyphenyl)isoquinolin-8-yl)methyl)-2-(4-(trifluoromethyl)phenyl)thiazole-4-carboxamide] | 5.90 |
| COc1cccc(-c2ccc(CNC(=O)c3cnn(-c4ccccc4)c3)c3cnccc23)c1 [Example 79, N-((5-(3-methoxyphenyl)isoquinolin-8-yl)methyl)-1-phenyl-1H-pyrazole-4-carboxamide] | 5.07 |
| COc1cccc(-c2ccc(CNC(=O)c3cc(-c4ccccc4)no3)c3cnccc23)c1 [Example 80, N-((5-(3-methoxyphenyl)isoquinolin-8-yl)methyl)-3-phenylisoxazole-5-carboxamide] | 5.62 |
| COc1cccc(-c2ccc(CNC(=O)Cc3nnc(-c4ccccc4)[nH]3)c3cnccc23)c1 [Example 81, N-((5-(3-methoxyphenyl)isoquinolin-8-yl)methyl)-2-(5-phenyl-4H-1,2,4-triazol-3-yl)acetamide] | 6.32 |
| COc1cccc(-c2ccc(CNC(=O)c3ccc(-c4ccccc4O)cc3)c3cnccc23)c1 [Example 82, 2′-hydroxy-N-((5-(3-methoxyphenyl)isoquinolin-8-yl)methyl)-[1,1′-biphenyl]-4-carboxamide] | 6.22 |
| COc1cccc(-c2ccc(CNC(=O)c3ccc(-c4ccccc4)o3)c3cnccc23)c1 [Example 83, N-((5-(3-methoxyphenyl)isoquinolin-8-yl)methyl)-5-phenylfuran-2-carboxamide] | 5.84 |
| COc1cccc(-c2ccc(CNC(=O)c3ccc(N4CCCCC4)cc3)c3cnccc23)c1 [Example 84, N-((5-(3-methoxyphenyl)isoquinolin-8-yl)methyl)-4-(piperidin-1-yl)benzamide] | 6.01 |
| COc1cccc(-c2ccc(CNC(=O)c3cc(-c4ccccc4)nn3-c3ccccc3)c3cnccc23)c1 [Example 85, N-((5-(3-methoxyphenyl)isoquinolin-8-yl)methyl)-1,3-diphenyl-1H-pyrazole-5-carboxamide] | 5.45 |
| COc1cccc(-c2ccc(CNC(=O)c3ccc(-c4ccc(F)cc4)cc3)c3cnccc23)c1 [Example 86, 4′-fluoro-N-((5-(3-methoxyphenyl)isoquinolin-8-yl)methyl)-[1,1′-biphenyl]-4-carboxamide] | 5.85 |
| COc1cccc(-c2ccc(CNC(=O)c3cccc(-c4cccc(F)c4)c3)c3cnccc23)c1 [Example 87, 3′-fluoro-N-((5-(3-methoxyphenyl)isoquinolin-8-yl)methyl)-[1,1′-biphenyl]-3-carboxamide] | 5.92 |

| SMILES | pIC50 |
| --- | --- |
| COc1cccc(-c2ccc(CNC(=O)c3ccc(-c4cccc(F)c4)cc3)c3cnccc23)c1 [Example 88, 3′-fluoro-N-((5-(3-methoxyphenyl)isoquinolin-8-yl)methyl)-[1,1′-biphenyl]-4-carboxamide] | 5.81 |
| COc1cccc(-c2ccc(CNC(=O)Cc3nc(-c4ccccc4)cs3)c3cnccc23)c1 [Example 89, N-((5-(3-methoxyphenyl)isoquinolin-8-yl)methyl)-2-(4-phenylthiazol-2-yl)acetamide] | 5.65 |
| COc1cccc(-c2ccc(CNC(=O)c3ccccc3-n3cnnn3)c3cnccc23)c1 [Example 90, N-((5-(3-methoxyphenyl)isoquinolin-8-yl)methyl)-2-(1H-tetrazol-1-yl)benzamide] | 6.04 |
| COc1cccc(-c2ccc(CNC(=O)c3cccc(-n4cnnn4)c3)c3cnccc23)c1 [Example 91, N-((5-(3-methoxyphenyl)isoquinolin-8-yl)methyl)-3-(1H-tetrazol-1-yl)benzamide] | 6.05 |
| COc1cccc(-c2ccc(CNC(=O)c3cccc4cnccc34)c3cnccc23)c1 [Example 92, N-((5-(3-methoxyphenyl)isoquinolin-8-yl)methyl)isoquinoline-5-carboxamide] | 5.75 |
| COc1cccc(-c2ccc(CNC(=O)CN3CCN(c4ccccc4)CC3)c3cnccc23)c1 [Example 93, N-((5-(3-methoxyphenyl)isoquinolin-8-yl)methyl)-2-(4-phenylpiperazin-1-yl)acetamide] | 5.18 |
| COc1cccc(-c2ccc(CNC(=O)CCc3cnn(C)c3)c3cnccc23)c1 [Example 94, N-((5-(3-methoxyphenyl)isoquinolin-8-yl)methyl)-3-(1-methyl-1H-pyrazol-4-yl)propanamide] | 6.52 |
| COc1cccc(-c2ccc(CNC(=O)CC3(c4ccccc4)CCN(C(=O)OC(C)(C)C)C3)c3cnccc23)c1 (stereo not drawn) [Example 95, tert-butyl 3-(2-(((5-(3-methoxyphenyl)isoquinolin-8-yl)methyl)amino)-2-oxoethyl)-3-phenylpyrrolidine-1-carboxylate] | 5.88 |
| COc1cccc(-c2ccc(CNC(=O)C3CCC(c4ccccc4)=N3)c3cnccc23)c1 (stereo not drawn) [Example 96, N-((5-(3-methoxyphenyl)isoquinolin-8-yl)methyl)-5-phenyl-3,4-dihydro-2H-pyrrole-2-carboxamide] | 5.10 |
| COc1cccc(-c2ccc(CNC(=O)C3CC3c3ccc(Cl)cc3)c3cnccc23)c1 (stereo not drawn) [Example 97, 2-(4-chlorophenyl)-N-((5-(3 methoxyphenyl)isoquinolin-8-yl)methyl)cyclopropanecarboxamide] | 6.22 |
| COc1cccc(-c2ccc(CNC(=O)C3CC34CCCC4)c3cnccc23)c1 (stereo not drawn) [Example 98, N-((5-(3-methoxyphenyl)isoquinolin-8-yl)methyl)spiro[2.4]heptane-1-carboxamide] | 5.13 |
| COc1cccc(-c2ccc(CNC(=O)C3CC34CCCCC4)c3cnccc23)c1 (stereo not drawn) [Example 100, N-((5-(3-methoxyphenyl)isoquinolin-8-yl)methyl)spiro[2.5]octane-1-carboxamide] | 6.61 |
| COc1cccc(-c2ccc(CNC(=O)C3CC3c3ccccc3Br)c3cnccc23)c1 (stereo not drawn) [Example 101, 2-(2-bromophenyl)-N-((5-(3-methoxyphenyl)isoquinolin-8-yl)methyl)cyclopropanecarboxamide] | 6.04 |
| COc1cccc(-c2ccc(CNC(=O)C3CC3c3ccc(F)cc3)c3cnccc23)c1 (stereo not drawn) [Example 102, 2-(4-fluorophenyl)-N-((5-(3-methoxyphenyl)isoquinolin-8-yl)methyl)cyclopropanecarboxamide] | 6.75 |
| COc1cccc(-c2ccc(CNC(=O)C3(S(=O)(=O)c4ccc(Cl)cc4)CC3)c3cnccc23)c1 [Example 103, 1-((4-chlorophenyl)sulfonyl)-N-((5-(3-methoxyphenyl)isoquinolin-8-yl)methyl)cyclopropanecarboxamide] | 5.93 |
| COc1cccc(-c2ccc(CNC(=O)C3CC3c3cccnc3)c3cnccc23)c1 (stereo not drawn) [Example 104, N-((5-(3-methoxyphenyl)isoquinolin-8-yl)methyl)-2-(pyridin-3-yl)cyclopropanecarboxamide] | 6.32 |
| COc1cccc(-c2ccc(CNC(=O)C3CC3c3ccccn3)c3cnccc23)c1 (stereo not drawn) [Example 105, N-((5-(3-methoxyphenyl)isoquinolin-8-yl)methyl)-2-(pyridin-2-yl)cyclopropanecarboxamide] | 5.13 |
| COc1ccc(C2CC2C(=O)NCc2ccc(-c3cccc(OC)c3)c3ccncc23)cc1 (stereo not drawn) [Example 106, 2-(4-methoxyphenyl)-N-((5-(3-methoxyphenyl)isoquinolin-8-yl)methyl)cyclopropanecarboxamide] | 6.27 |
| COc1cccc(-c2ccc(CNC(=O)C3CC3c3cccc(OC)c3)c3cnccc23)c1 (stereo not drawn) [Example 107, 2-(3-methoxyphenyl)-N-((5-(3-methoxyphenyl)isoquinolin-8-yl)methyl)cyclopropanecarboxamide] | 5.93 |
